Experimental data from PubChem BioAssay (NCI).
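Cultured in 96-well plates, cells were exposed to test compound for 48 hours across five concentrations. GI50 = concentration required for 50% inhibition of growth. TGI: concentration producing complete growth inhibition.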

Key:
Test in all cases: NCI anticancer screen, dose series, 48 h
[1] = tested on: RXF 393 renal
[2] = tested on: SF-268 CNS
[3] = tested on: HCT-116 colon
[4] = tested on: NCI/ADR-RES ovarian
[5] = tested on: NCI-H226 lung
[6] = tested on: HS 578T breast
[7] = tested on: BT-549 breast
[8] = tested on: SNB-75 CNS
[9] = tested on: EKVX NSCLC
[10] = tested on: M14 melanoma

| Structure (SMILES) | GI50 [1] [µM] | TGI [1] [µM] | GI50 [2] [µM] | TGI [2] [µM] | GI50 [3] [µM] | TGI [3] [µM] | GI50 [4] [µM] | TGI [4] [µM] | GI50 [5] [µM] | TGI [5] [µM] | GI50 [6] [µM] | TGI [6] [µM] | GI50 [7] [µM] | TGI [7] [µM] | GI50 [8] [µM] | TGI [8] [µM] | GI50 [9] [µM] | TGI [9] [µM] | GI50 [10] [µM] | TGI [10] [µM] |
| --- | --- | --- | --- | --- | --- | --- | --- | --- | --- | --- | --- | --- | --- | --- | --- | --- | --- | --- | --- | --- |
| COc1ccc(/C=C/C(=O)c2ccc(SC)cc2)cc1OC | 12.7 | 29.4 | 22.3 | 63.8 | 2.65 | 10.1 | 10.9 | 27.3 | 8.42 | 45.1 | 16.6 | 99.3 | 2.86 | 6.66 | 17 | 37.2 | 19.1 | 35.9 | 3.83 | 14.2 |
| O=C1c2cc3c(cc2-c2c1c1ccc(Cl)cc1c(=O)n2CCCNCCO)OCO3 | 0.926 | 2.59 | 0.0668 | 2.13 | 0.104 | 0.588 | 0.0585 | 1.9 | 0.052 | 1.55 | 1.73 | 4 | 0.941 | 2.49 |  |  | 1.63 | 3.42 | 0.0574 | 1.67 |
| O=C(c1ccco1)c1nc2cc(Cl)ccc2[n+]([O-])c1C(F)(F)F | 19.5 | 59.2 | 71.1 | > 100 | 40.6 | > 100 | 52.4 | > 100 | 33.2 | > 100 | > 100 | > 100 | 35.1 | > 100 | 46 | > 100 | 37.6 | > 100 | 59.1 | > 100 |
| Cc1ccc(-n2c3c(c4c(CN(C)C)c(O)ccc42)CCc2ccccc2C3=O)cc1 | 13.6 | 28 | 19.8 | 50.5 | 14.4 | 27.8 | 14.5 | 34.7 | 18.1 | 37 | 21.3 | 57.7 | 14.9 | 29.7 |  |  | 38 | > 100 | 16.1 | 30.2 |
| NC(N)=N/N=C\c1cccc(OCc2ccccc2)c1 | 2.54 | 6.64 | 10.9 | 25 | 1.84 | 3.96 | 3.85 | 22.2 | 6.74 | 25.9 | 9.12 | 28.7 | 15 | 28.4 | 7.03 | 23.4 | 11 | 25.4 |  |  |
| COc1c(OC)c(OC)c2c(c1OC)c(=O)c1ccccc1n2C |  |  |  | > 100 |  | > 100 |  | > 100 |  | > 100 |  | > 100 |  | > 100 |  | > 100 |  | > 100 |  | > 100 |
| COc1ccccc1CCN=C1NC(=O)/C(=C/c2ccc3ncccc3c2)S1 | 5.5 | 16.9 | 7.54 | > 25 | 1.63 | > 12.4 | 6.21 | > 25 | 7.28 | 24.7 | 7.39 | > 18.1 | 6.22 | > 20.5 | 3.71 | > 19.2 |  |  | 8.41 | > 25 |
| O=C1C(=O)c2ccccc2C(O)=C1CC=C(Br)Br | 14.3 | 80.7 | 2.66 | > 100 | 0.887 | > 100 | 5.33 | 87.3 | 11.6 | 53.2 | 10.6 | 56 | 11.3 | 71.9 | 2.58 | 59.5 |  |  | 7.38 | 55.4 |
| C/C(=N\Nc1cc(C)c2cc(C)ccc2n1)c1ccccn1 | 0.113 | 1.53 | 0.047 | 1.62 | < 0.0497 | 1.36 | 0.0666 | 3.85 | 0.0366 | 1.05 | 1.16 | 6.87 | 0.276 | 17.2 | 0.205 | 2.18 |  |  | 0.0684 | 1.32 |
| CC1(C)N=C(N)N=C(N)N1c1ccc(OCCCCOc2ccc(S(=O)(=O)F)cc2)c(Cl)c1 | 0.363 | 23.2 | 0.076 | 16.4 | 0.0463 | 16.7 | 71.6 | > 100 | 0.58 | 28.1 | 4.85 | 34.3 | 1.32 | 17.3 | 0.737 | 17.1 |  |  | 0.116 | 15.3 |
